Data published in patent US11185531B2, “Arginine methyltransferase inhibitors and uses thereof” (Epizyme, Inc., priority 2013, dated 2021).

Tests used:
[1] = target: T1, human PRMT6 (Homo sapiens, UniProt Q96LA8); assay: PRMT6 Biochemical Assay (3H-SAM Flashplate, peptide substrate); conditions: 30 min preincubation
T1 construct: Flag-PRMT6-His was eluted with 200 ug/ml FLAG peptide in the same buffer; made in house; host or cells: HEK 293F cells (BacMam baculovirus, pFastBacMam)
Excerpt: Peptide representative of human histone H4 residues 36-50 was synthesized with an N-terminal linker-affinity tag motif and a C-terminal amide cap by 21st Century Biochemicals. The peptide was purified by high-performance liquid chromatography (HPLC) to greater than 95% purity and confirmed by liquid chromatography mass spectrometry (LC-MS). The sequence was Biot-Ahx-[…]-amide and contained a monomethylated lysine at position 44 (SEQ ID NO:5).
Full-length human PRMT6 (NM_018137.2) transcript clone was amplified from an HEK 293 cDNA library, incorporating a flanking 5′ sequence encoding a FLAG tag ([…]) (SEQ ID NO:6) fused directly to Ser 2 of PRMT6 and a 3′ sequence encoding a hexa His sequence (HHHHHH) fused directly to Asp 375. The amplified gene was subcloned into pFastBacMam (Viva Biotech).
Column was washed with 20 mM imidazole in the same buffer and Flag-PRMT6-His was eluted with 150 mM imidazole. Pooled fractions were dialysed against buffer Ni-A and further purified by anti-flag M2 affinity chromatography. Flag-PRMT6-His was eluted with 200 ug/ml FLAG peptide in the same buffer. Pooled fractions were dialysed in 20 mM Tris, 150 mM NaCl, 10% glycerol and 5 mM 3-mercaptoethanol, pH 7.8. The purity of recovered protein was 95%.
General Procedure for PRMT6 Enzyme Assays on Peptide Substrates.
The assays were all performed in a buffer consisting of 20 mM Bicine (pH=7.6), 1 mM TCEP, 0.005% BSG, and 0.002% Tween 20, prepared on the day of use. Compounds in 100% DMSO (1 ul) were spotted into a polypropylene 384-well V-bottom plates (Greiner) using a Platemate Plus outfitted with a 384-channel head (Thermo Scientific). DMSO (1 ul) was added to Columns 11, 12, 23, 24, rows A-H for the maximum signal control and 1 ul of SAH, a known product and inhibitor of PRMT6, was added to columns 11, 12, 23, 24, rows I-P for the minimum signal control. A cocktail (40 ul) containing the PRMT6 enzyme was added by Multidrop Combi (Thermo-Fisher). The compounds were allowed to incubate with PRMT6 for 30 min at room temperature, then a cocktail (10 ul) containing SAM and peptide was added to initiate the reaction (final volume=51 ul). The final concentrations of the components were as follows: PRMT6 was 1 nM, ^3H-SAM was 200 nM, non-radiolabeled SAM was 250 nM, peptide was 75 nM, SAH in the minimum signal control wells was 1 mM, and the DMSO concentration was 2%. The assays were stopped by the addition of non-radiolabeled SAM (10 ul) to a final concentration of 400 uM, which dilutes the ^3H-SAM to a level where its incorporation into the peptide substrate is no longer detectable. 50 ul of the reaction in the 384-well polypropylene plate was then transferred to a 384-well Flashplate and the biotinylated peptides were allowed to bind to the streptavidin surface for at least 1 hour before being washed once with 0.1% Tween20 in a Biotek ELx405 plate washer. The plates were then read in a PerkinElmer TopCount plate reader to measure the quantity of ^3H-labeled peptide bound to the Flashplate surface, measured as disintegrations per minute (dpm) or alternatively, referred to as counts per minute (cpm).
(§1) Where dpm=disintegrations per minute, cmpd=signal in assay well, and min and max are the respective minimum and maximum signal controls.
(§2) Where top and bottom are the normally allowed to float, but may be fixed at 100 or 0 respectively in a 3-parameter fit. The Hill Coefficient normally allowed to float but may also be fixed at 1 in a 3-parameter fit. Y is the % inhibition and X is the compound concentration.

[2] = target: T2, human PRMT1 (Homo sapiens, UniProt Q99873); assay: PRMT1 Biochemical Assay (3H-SAM Flashplate, peptide substrate); conditions: 30 min preincubation
T2 construct: GST-tagged PRMT1; made in house; host or cells: High Five insect cells (baculovirus)
T2 sequence (Q99873 with tags, fused parts or gaps): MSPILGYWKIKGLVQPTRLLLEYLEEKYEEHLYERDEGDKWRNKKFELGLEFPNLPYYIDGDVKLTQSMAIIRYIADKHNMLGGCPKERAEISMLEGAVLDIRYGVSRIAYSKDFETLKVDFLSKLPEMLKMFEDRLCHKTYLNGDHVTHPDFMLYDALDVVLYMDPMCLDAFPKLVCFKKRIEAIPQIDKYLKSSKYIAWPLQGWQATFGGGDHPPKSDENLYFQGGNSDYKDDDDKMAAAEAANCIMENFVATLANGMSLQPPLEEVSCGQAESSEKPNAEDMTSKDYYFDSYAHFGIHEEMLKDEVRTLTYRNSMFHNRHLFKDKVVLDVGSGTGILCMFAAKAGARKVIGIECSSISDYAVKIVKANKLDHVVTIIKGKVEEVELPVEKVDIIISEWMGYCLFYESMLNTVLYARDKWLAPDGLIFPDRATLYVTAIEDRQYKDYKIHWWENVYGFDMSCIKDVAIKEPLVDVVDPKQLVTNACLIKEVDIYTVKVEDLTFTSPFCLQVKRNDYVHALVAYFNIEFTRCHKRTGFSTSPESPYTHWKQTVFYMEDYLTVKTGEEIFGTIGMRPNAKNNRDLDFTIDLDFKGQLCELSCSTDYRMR
Excerpt: (§3) Peptide representative of human histone H4 residues 36-50 was synthesized with an N-terminal linker-affinity tag motif and a C-terminal amide cap by 21st Century Biochemicals. The peptide was purified by high-performance liquid chromatography (HPLC) to greater than 95% purity and confirmed by liquid chromatography mass spectrometry (LC-MS). The sequence was Biot-Ahx-[…]-amide (SEQ ID NO.: 1).
Full-length human PRMT1 isoform 1 (NM_001536.5) transcript clone was amplified from an HEK 293 cDNA library, incorporating flanking 5′ sequence encoding a FLAG tag ([…]) (SEQ ID NO:2) fused directly to Met 1 of PRMT1. The amplified gene was subcloned into pFastBacI (Life Technologies) modified to encode an N-terminal GST tag and a TEV cleavage sequence
GST-tagged PRMT1 was eluted with 50 mM Tris, 2 mM glutathione, pH 7.8, dialysed in buffer A and concentrated to 1 mg/mL. The purity of recovered protein was 73%. Reference: Wasilko, D. J. and S. E. Lee: “TIPS: titerless infected-cells preservation and scale-up” Bioprocess J., 5 (2006), pp. 29-32.
General Procedure for PRMT1 Enzyme Assays on Peptide Substrates.
The assays were all performed in a buffer consisting of 20 mM Bicine (pH=7.6), 1 mM TCEP, 0.005% BSG, and 0.002% Tween 20, prepared on the day of use. Compounds in 100% DMSO (1 ul) were spotted into a polypropylene 384-well V-bottom plates (Greiner) using a Platemate Plus outfitted with a 384-channel head (Thermo Scientific). DMSO (1 ul) was added to Columns 11, 12, 23, 24, rows A-H for the maximum signal control and 1 ul of SAH, a known product and inhibitor of PRMT1, was added to columns 11, 12, 23, 24, rows I-P for the minimum signal control. A cocktail (40 ul) containing the PRMT1 enzyme was added by Multidrop Combi (Thermo-Fisher). The compounds were allowed to incubate with PRMT1 for 30 min at room temperature, then a cocktail (10 ul) containing SAM and peptide was added to initiate the reaction (final volume=51 ul). The final concentrations of the components were as follows: PRMT1 was 0.5 nM, ^3H-SAM was 200 nM, non-radiolabeled SAM was 1.5 uM, peptide was 20 nM, SAH in the minimum signal control wells was 1 mM, and the DMSO concentration was 2%. The assays were stopped by the addition of non-radiolabeled SAM (10 ul) to a final concentration of 300 uM, which dilutes the ^3H-SAM to a level where its incorporation into the peptide substrate is no longer detectable. 50 ul of the reaction in the 384-well polypropylene plate was then transferred to a 384-well Flashplate and the biotinylated peptides were allowed to bind to the streptavidin surface for at least 1 hour before being washed once with 0.1% Tween20 in a Biotek ELx405 plate washer. The plates were then read in a PerkinElmer TopCount plate reader to measure the quantity of ^3H-labeled peptide bound to the Flashplate surface, measured as disintegrations per minute (dpm) or alternatively, referred to as counts per minute (cpm).
as §1, §2

[3] = tested on: mono-methyl arginine in RKO cells; assay: RKO Methylation Assay, In Cell Western for mono-methyl arginine; assay type: cell-based; conditions: Homo sapiens, 72 hours, percent activation of mono-methyl arginine signal
Excerpt: RKO adherent cells were purchased from ATCC (American Type Culture Collection), Manassas, Va., USA. DMEM/Glutamax medium, penicillin-streptomycin, heat inactivated fetal bovine serum, 0.05% trypsin and D-PBS were purchased from Life Technologies, Grand Island, N.Y., USA. Odyssey blocking buffer, 800 CW goat anti-rabbit IgG (H+L) antibody, and Licor Odyssey infrared scanner were purchased from Licor Biosciences, Lincoln, Nebr., USA. Mono-methyl arginine antibody was purchased from Cell Signaling Technology, Danvers, Mass., USA. Methanol was purchased from VWR, Franklin, Mass., USA. 10% Tween 20 was purchased from KPL, Inc., Gaithersburg, Md., USA. DRAQ5 was purchased from Biostatus Limited, Leicestershire, UK.
RKO adherent cells were maintained in growth medium (DMEM/Glutamax medium supplemented with 10% v/v heat inactivated fetal bovine serum and 100 units/mL penicillin-streptomycin) and cultured at 37° C. under 5% CO2.
Cell Treatment, in Cell Western (ICW) for Detection of Mono-Methyl Arginine and DNA Content.
RKO cells were seeded in assay medium at a concentration of 20,000 cells per mL to a poly-D-lysine coated 384 well culture plate (BD Biosciences 356697) with 50 μL per well. Compound (100 nL) from a 96-well source plate was added directly to 384 well cell plate. Plates were incubated at 37° C., 5% CO2 for 72 hours. After three days of incubation, plates were brought to room temperature outside of the incubator for ten minutes and blotted on paper towels to remove cell media. 50 μL of ice cold 100% methanol was added directly to each well and incubated for 30 min at room temperature. After 30 min, plates were transferred to a Biotek EL406 plate washer and washed 2 times with 100 μL per well of wash buffer (IX PBS). Next 60 μL per well of Odyssey blocking buffer (Odyssey Buffer with 0.1% Tween 20 (v/v)) were added to each plate and incubated 1 hour at room temperature. Blocking buffer was removed and 20 μL per well of primary antibody was added (mono-methyl arginine diluted 1:200 in Odyssey buffer with 0.1% Tween 20 (v/v)) and plates were incubated overnight (16 hours) at 4° C. Plates were washed 5 times with 100 μL per well of wash buffer. Next 20 μL per well of secondary antibody was added (1:200 800 CW goat anti-rabbit IgG (H+L) antibody, 1:1000 DRAQ5 (Biostatus limited) in Odyssey buffer with 0.1% Tween 20 (v/v)) and incubated for 1 hour at room temperature. The plates were washed 5 times with 100 μL per well wash buffer then 2 times with 100 μL per well of water. Plates were allowed to dry at room temperature then imaged on the Licor Odyssey machine which measures integrated intensity at 700 nm and 800 nm wavelengths. Both 700 and 800 channels were scanned.
First, the ratio for each well was determined by:
Each plate included fourteen control wells of DMSO only treatment (minimum activation) as well as fourteen control wells for maximum activation treated with 20 μM of a reference compound. The average of the ratio values for each control type was calculated and used to determine the percent activation for each test well in the plate. Reference compound was serially diluted three-fold in DMSO for a total of nine test concentrations, beginning at 20 μM. Percent activation was determined and EC30 curves were generated using triplicate wells per concentration of compound.

[4] = target: T3, human PRMT8 (Homo sapiens, UniProt Q9NR22); assay: PRMT8 Biochemical Assay (3H-SAM Flashplate, peptide substrate); conditions: 30 min preincubation
T3 construct: Full-length human PRMT8 (NM_019854.4) isoform 1 transcript clone; GST (N, cleaved yes); made in house; host or cells: E. coli BL21(DE3) Gold
T3 sequence (Q9NR22 whole entry, canonical isoform): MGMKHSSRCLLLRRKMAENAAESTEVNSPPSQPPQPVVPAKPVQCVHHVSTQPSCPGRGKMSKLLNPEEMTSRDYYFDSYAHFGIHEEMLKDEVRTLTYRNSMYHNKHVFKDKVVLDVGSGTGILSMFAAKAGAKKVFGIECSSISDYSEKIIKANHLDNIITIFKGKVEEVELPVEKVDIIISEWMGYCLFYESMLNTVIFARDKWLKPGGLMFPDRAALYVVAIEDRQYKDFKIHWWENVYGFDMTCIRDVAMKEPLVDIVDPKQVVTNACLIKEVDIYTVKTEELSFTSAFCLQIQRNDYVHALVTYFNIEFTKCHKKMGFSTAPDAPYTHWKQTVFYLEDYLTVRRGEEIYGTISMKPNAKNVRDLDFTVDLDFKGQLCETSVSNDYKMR
Excerpt: as §3, with “31-45” for “36-50”, “NO:8).” for “NO.: 1).”
The resulting construct encodes an N-terminal GST tag and a thrombin cleavage sequence
GST-tagged PRMT8 was eluted with 50 mM Tris, 2 mM glutathione, pH 7.8. Pooled fractions were cleaved by thrombin (10 U) and dialysed in buffer A. GST was removed by reloading the cleaved protein sample onto glutathione sepharose column and PRMT8 was collected in the flow-through fractions. PRMT8 was purified further by ceramic hydroxyapatite chromatography. The column was washed with 50 mM phosphate buffer, 100 mM NaCl, 5% glycerol, 5 mM 3-mercaptoethanol, pH 7.8 and PRMT8 was eluted by 100 mM phosphate in the same buffer. Protein was concentrated and buffer was exchanged to 50 mM Tris, 300 mM NaCl, 10% glycerol, 5 mM β-mercaptoethanol, pH 7.8 by ultrafiltration. The purity of recovered protein was 89%.
General Procedure for PRMT8 Enzyme Assays on Peptide Substrates.
The assays were all performed in a buffer consisting of 20 mM Bicine (pH=7.6), 1 mM TCEP, 0.005% BSG, and 0.002% Tween 20, prepared on the day of use. Compounds in 100% DMSO (1 ul) were spotted into a polypropylene 384-well V-bottom plates (Greiner) using a Platemate Plus outfitted with a 384-channel head (Thermo Scientific). DMSO (1 ul) was added to Columns 11, 12, 23, 24, rows A-H for the maximum signal control and 1 ul of SAH, a known product and inhibitor of PRMT8, was added to columns 11, 12, 23, 24, rows I-P for the minimum signal control. A cocktail (40 ul) containing the PRMT8 enzyme was added by Multidrop Combi (Thermo-Fisher). The compounds were allowed to incubate with PRMT8 for 30 min at room temperature, then a cocktail (10 ul) containing ^3H-SAM and peptide was added to initiate the reaction (final volume=51 ul). The final concentrations of the components were as follows: PRMT8 was 1.5 nM, ^3H-SAM was 50 nM, non-radiolabeled SAM was 550 nM, peptide was 150 nM, SAH in the minimum signal control wells was 1 mM, and the DMSO concentration was 2%. The assays were stopped by the addition of non-radiolabeled SAM (10 ul) to a final concentration of 400 uM, which dilutes the ^3H-SAM to a level where its incorporation into the peptide substrate is no longer detectable. 50 ul of the reaction in the 384-well polypropylene plate was then transferred to a 384-well Flashplate and the biotinylated peptides were allowed to bind to the streptavidin surface for at least 1 hour before being washed once with 0.1% Tween20 in a Biotek ELx405 plate washer. The plates were then read in a PerkinElmer TopCount plate reader to measure the quantity of ^3H-labeled peptide bound to the Flashplate surface, measured as disintegrations per minute (dpm) or alternatively, referred to as counts per minute (cpm).
as §1, §2

T1 sequence (Q96LA8 with tags, fused parts or gaps): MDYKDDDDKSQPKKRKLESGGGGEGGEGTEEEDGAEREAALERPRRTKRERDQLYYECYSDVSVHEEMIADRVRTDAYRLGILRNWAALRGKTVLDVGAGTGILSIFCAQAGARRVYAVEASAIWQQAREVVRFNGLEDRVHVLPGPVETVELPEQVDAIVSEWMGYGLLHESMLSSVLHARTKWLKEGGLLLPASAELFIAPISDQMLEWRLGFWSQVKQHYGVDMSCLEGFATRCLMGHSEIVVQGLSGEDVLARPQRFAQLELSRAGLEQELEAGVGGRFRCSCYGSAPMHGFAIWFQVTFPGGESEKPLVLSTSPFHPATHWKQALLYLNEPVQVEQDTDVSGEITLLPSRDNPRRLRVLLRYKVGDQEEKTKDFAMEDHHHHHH

SMILES | IC50 [1] | IC50 [2] | EC30 [3] | IC50 [4]
CN(CCN)Cc1c[nH]nc1C1CC1 [Compound 12] | 1010 to 3000 nM | 1010 to 3000 nM |  | 
CN(CCN)Cc1c[nH]nc1C(C)(C)C [Compound 27] | 1010 to 3000 nM |  | > 12 µM | 
CNCCN(C)Cc1c[nH]nc1C1CCN(C(=O)CC(C)C)CC1 [Compound 40, 3-methyl-1-(4-(4-((methyl(2-(methylamino)ethyl)amino)methyl)-1H-pyrazol-3-yl)piperidin-1-yl)butan-1-one] | < 100 nM |  |  | 101 to 1000 nM
CN(CCN)Cc1c[nH]nc1C1CCC(N2CCOCC2)CC1 (centres unmarked) [Compound 43, N^1-methyl-N^1-((3-(4-morpholinocyclohexyl)-1H-pyrazol-4-yl)methyl)ethane-1,2-diamine] | < 100 nM |  | < 3 µM | 
